Key:
Format in all cases: cell-based, human
STAT3 gene = experiment: RT-qPCR gene expression of STAT3; conditions: A549, IC25, 24 h
Method: A549 cells were seeded into 6-well plates at a density of 1 × 10^6 cells/mL in supplemented DMEM. The cells were incubated with the triterpenes (IC25) for 24 h. Total RNA was extracted from the cells using the TRIzol reagent (Invitrogen Corporation, Carlsbad, CA, USA) according to the manufacturer’s instructions. The purity and concentration of RNA were assessed using a NanoDrop spectrophotometer (Thermo Fisher Scientific). cDNA was synthesized using the High-Capacity cDNA Reverse Transcription Kit (Applied Biosystems) according to the manufacturer’s instructions.
RT-qPCR was performed on a StepOnePlus® Real-Time PCR System (Thermo Fisher Scientific) using TaqMan Gene Expression Assays (Applied Biosystems) for PDL1 (CD274; Assay ID: Hs01125297_m1), ribonucleotide reductase (RR) M1 (Assay ID: Hs01040697_m1), and STAT3 (Assay ID: Hs01047586_g1). Each reaction consisted of 10 ng of cDNA, TaqMan Gene Expression Master Mix (Applied Biosystems), and TaqMan probes. The PCR cycling conditions were as follows: 95 °C for 10 min, followed by 40 cycles of 95 °C for 15 s and 60 °C for 60 s. The relative gene expression levels were calculated using the ΔΔCt method. GAPDH (Assay ID: Hs02758991_g1) was used as the endogenous control for normalization.
All RT-qPCR experiments were performed at least in triplicate. All data were expressed by plotting values with an average of four measurements for each treatment condition as the mean ± SD and analyzed with the software GraphPad Prism 9. Statistical analysis was performed using one-way analysis of variance (ANOVA) to compare the mean value of each treated type of cells versus the control (untreated cells). The statistical significance defined by the software for p values was **** < 0.0001, *** from 0.001 to 0.0001, ** from 0.001 to 0.01, * from 0.01 to 0.05, and non-significant (ns) ≥ 0.05.

A549 cells = experiment: Total ROS production assay (DCF); conditions: A549, IC25 (CisPt 25 μM), 24 h
Method: The production of total ROS was determined using the 2′,7′-dichlorodihydrofluorescein diacetate (DCF) fluorescent dye. A549 cells were seeded in a concentration of 1 × 10^5 cells/mL into black 96-well plates with a clear bottom. After 24 h, the cells were incubated with the triterpenes (IC25) and controls for 24 h. Then, 50 μL of DCF (10 μM) was added to each well and they were incubated for 1 h at room temperature. Then, the fluorescence of each well was measured (Ex/Em = 485/530 nm) in the Tecan® M200 plate reader.
This experiment was performed in triplicate. All data were expressed by plotting the values as an average of three measurements for each treatment condition as the mean ± SD and analyzed with the software GraphPad Prism 9. Statistical analysis was performed using one-way analysis of variance (ANOVA) to compare the mean value of each treated type of cells versus the control (untreated cells). The statistical significance defined by the software for p values was **** < 0.0001, *** from 0.001 to 0.0001, ** from 0.001 to 0.01, * from 0.01 to 0.05, and non-significant (ns) ≥ 0.05.

[1] = tested on: DNA damage machinery in A549 cells; experiment: DNA damage assay (anti-pH2AX / anti-pATM, flow cytometry); conditions: A549, IC50, 24 h, vs untreated cells
Method: We used flow cytometry to analyze several cellular mechanistic pathways in A549 cells after incubation with the triterpenes. In general, the cells were seeded in a 6-well plate at a density of 1 × 10^6 cells/mL and incubated for 24 h in supplemented DMEM. After 24 h, the A549 cells were treated with the triterpenes, following each manufacturer’s protocol. All of the following experiments were performed in a Muse® Cell Analyzer (EMD Millipore Corporation, Temecula, CA). The instrument was calibrated before each assay using the Muse® System Check Kit (Luminex MCH100101, Luminex Corporation). Each assay was run at least in two independent experiments. For each experiment, all samples were analyzed in triplicate in the instrument and the capillary line was washed after each sample run to avoid artifacts. In addition, to address the issue of cell doublets, we used the Muse® Cell Dispersal Reagent (Luminex Corporation) in all experiments. The concentration of the triterpenes in each assay was selected depending on the cellular concentration necessary to generate the gain signal in the instrument. This means that we attempted to select concentrations avoiding excessive cytotoxicity to accurately determine the respective signal from each assay.
Then, the A549 cells were scraped and centrifuged. The pellet was suspended in the assay buffer from the Luminex MCH200107 kit (Luminex Corporation). […]

| Compound | STAT3 gene expression (in words) (STAT3 gene) | Total ROS production (in words) (A549 cells) | Activation of the DNA damage machinery (in words) [1] |
| --- | --- | --- | --- |
| C=C(C)[C@@H]1CC[C@]2(C(=O)O)CC[C@]3(C)[C@H](CC[C@@H]4[C@@]5(C)CC[C@H](O)C(C)(C)[C@@H]5CC[C@]43C)[C@@H]12 [BeA, betulinic acid] | superior in suppressing both genes | highest increase in total ROS |  |
| C[C@H]1[C@H](C)CC[C@]2(C(=O)O)CC[C@]3(C)C(=CC[C@@H]4[C@@]5(C)CC[C@H](O)C(C)(C)[C@@H]5CC[C@]43C)[C@H]12 [UrA, ursolic acid] |  |  | caused the activation of the DNA damage machinery |

— paper PMC11206507, “Unraveling the Impact of Six Pentacyclic Triterpenes Regulating Metabolic Pathways on Lung Carcinoma Cells” (Pharmaceuticals, 2024)
